Here are results for 2 molecules from patent publication US20210333263A1, “REDOX ACTIVATABLE FLUORESCENT SENSORS” (The Board of Regents of the University of Texas System, priority 2016, published 2021).

Data set [1] concerns A549 lung cancer cells. Description: High-throughput quantification of cytosolic delivery of qRAS-labeled protein on a plate reader. In kind it is cell-based. The settings on record: cells pretreated with 50 μM NEM for 30 min, then JetPEI and OVA^qRAS. Here is the method:
A549 cancer cells were seeded into 96-well black plate at a density of 10,000 cells per well and incubated for 24 hr. The polymer solution (100 μg/mL) and qRAS-labeled protein (OVA^qRAS or IgG^qRAS, 25 μg/mL) were co-incubated with cells for 40 min at 37° C. The cells were washed twice with PBS (pH 7.4) and cultured in complete culture medium. The fluorescence of TMR and Cy5 were measured on a Tecan fluorescent plate reader at different times. At 24 hr, 5 mM DTT was added to cleave the intracellular disulphide bond and completely release the TMR signal. The excitation and emission settings: TMR: Ex: 545 nm with bandwidth 9 nm, Em: 595 nm with bandwidth 20 nm; Cy5: Ex: 640 nm with bandwidth 9 nm, Em: 690 nm with bandwidth 20 nm.
The activation percentage (%) of OVA^qRAS was calculated using the equation described below:
Activation (%)=(FTMR−F0)/(FTMR,DTT−F0)*100
where FTMR is the fluorescence intensity of TMR at different times, FTMR,DTT is the fluorescence intensity of TMR after the addition of DTT at 24 hr, and F0 is the background of TMR fluorescence.
For the N-ethylmaleimide (NEM) blocking experiments, the same procedures were used except that the cells were pretreated with 50 μM NEM for 30 min prior to the treatment with polymer and OVA^qRAS.

Data set [2] is described as follows: Fluorescence emission as a function of pH in PBS. The data set is classed as physicochemical. The note with it: pH 4.0 to 8.0, PBS, 6 hours. Here is the method:
Samples were excited at 390 nm.
FIG. 9 show the normalized fluorescence emission ratio of OVA^qRAS in PBS at different pH. OVA^qRAS (0.5 mg/mL) was incubated in PBS with different pH for 6 hours. The fluorescence emission spectra of TMR and Cy5 were recorded using a Hitachi fluorometer with excitation wavelength at 550 nm and 640 nm, respectively.

With `CCN1C(=O)C=CC1=O` [N-ethylmaleimide], the “fluorescence signals of OVA^qRAS after NEM pretreatment” value in data set [1] was “significant suppression of fluorescence signals”.

B1: OVA^qRAS: Ovalbumin labeled by qRAS (conjugate, UniProt P01012 2-386, looked up)
Ovalbumin: GSIGAASMEFCFDVFKELKVHHANENIFYCPIAIMSALAMVYLGAKDSTRTQINKVVRFDKLPGFGDSIEAQCGTSVNVHSSLRDILNQITKPNDVYSFSLASRLYAEERYPILPEYLQCVKELYRGGLEPINFQTAADQARELINSWVESQTNGIIRNVLQPSSVDSQTAMVLVNAIVFKGLWEKAFKDEDTQAMPFRVTEQESKPVQMMYQIGLFRVASMASEKMKILELPFASGTMSMLVLLPDEVSGLEQLESIINFEKLTEWTSSNVMEERKIKVYLPRMKMEEKYNLTSVLMAMGITDVFSSSANLSGISSAESLKISQAVHAAHAEINEAGREVVGSAEAGVDAASVSEEFRADHPFLFCIKHIATNAVLFFGRCVSP
modifications: qRAS label
Regarding B1, the “TMR/Cy5 ratio across pH range” value in data set [2] is “remained constant”.
